# Data published in EP2265599B1, “CRYSTAL FORM OF PHENYLAMINOPYRIMIDINE DERIVATIVE” (Natco Pharma Limited, priority 2008, dated 2009).
# Tests used:
# Baf3T315I = test: In vivo anti-leukemic activity, blast cell count in blood smears, Baf3T315I implanted nude mice; settings: Imatinib 10mg/kg, AN019 20mg/kg, AN024 20mg/kg, oral gavage or ip from day 15; up to day 42
# From the text: (§1) Blood smears were obtained via the tail vein or via the femoral vein every 6th day and blast cells counted and graphically represented.
# (§2) Abdominal swelling and decrease in activity was monitored daily, blood smear taken via the tail vein or the femoral vein every 6th day and H&E stained as per standard protocols. 42 days after implantation, mice were sacrificed and spleens harvested.
# (§3) Nude mice were intraperitoneally implanted with Baf3 mutant cells (wt, T315I, M351T or E255K). […] Blood was drawn from the femoral vein or tail vein every 6th day and blast cell count determined and graphically represented.
# Baf3M351T = test: In vivo anti-leukemic activity, blast cell count in blood smears, Baf3M351T implanted nude mice; settings: Imatinib 10mg/kg, AN019 20mg/kg, AN024 20mg/kg, oral gavage or ip from day 15; up to day 42
# From the text: as §1, §2, §3
# Baf3E255K = test: In vivo anti-leukemic activity, blast cell count in blood smears, Baf3E255K implanted nude mice; settings: Imatinib 10mg/kg, AN019 20mg/kg, AN024 20mg/kg, oral gavage or ip from day 15; up to day 42
# From the text: as §1, §2, §3
# [1] = system: K562 luc human leukemia cells; test: Drug effectiveness (De) from in vivo luciferase studies; set-up: species or system nude mice
# From the text: [formula] Where: • Σalive = total number of mice alive per concentration at the end of experiment times photon count, Eluc = total number of mice alive showing luciferase expression per concentration at end of experiment and c represents control untreated animals times photon count and ∑c-initial represents the initial number of animals in control at start of experiment times photon count.
# K5621uc cells = test: Drug temporal penetrance (Tp) after stopping drug treatment; format: in vivo, nude mice; settings: AN019 20mg/kg, AN024 20mg/kg, Imatinib 10mg/kg, daily ip from day 15, stopped on day 35, imaged till day 45
# Procedure: The temporal penetrance was calculated applying the following equation, Tp=. (((P)/(n))a -((P)/(n))ter)/(((P)/(n))a -((P)/(n))b) [formula]
# Where: • P=photon counts at day 'a', day 'ter', or day 'b' where 'a' is the day when drug treatment was stopped and 'ter' is the day when the experiment was terminated and 'b' is the day where P is minimum after day a but before day 'ter'. • n=number of animals alive when P was measured.
# The animals were imaged at 6 day intervals post transplantation. […] Drug treatment was stopped on day 35 and animals were imaged till day 45, and calculated as described in methods.
# ZR-71 = test: Matrigel invasion assay (modified Boyden chamber), ZR-71; format: cell-based; settings: cells treated 48 h
# Procedure: (§4) The in vitro invasiveness of 4910, 5310 and U87 glioma cells and MDAMB231 and ZR71 breast cancer cells in the presence of specified concentrations of compounds were assessed using a modified Boyden chamber assay. Cells were treated with these compounds for 48 h. 1x10^6 cells were suspended in 600µl of serum-free medium supplemented with 0.2% BSA and placed in the upper compartment of the transwell chambers (Coming Costar Fischer Scientific Cat #07-200-158, Pittsburgh PA) coated with Matrigel (0.7 mg/ml). The lower compartment of the chamber was filled with 200 µl of serum medium and the cells were allowed to migrate for 24 h. After incubation, the cells were fixed and stained with Hema-3 and quantified as previously described (Mohanam et al. 1993). The migrated cells were imaged microscopically to determine the reduction in invasiveness induced by the compounds of this invention.
# (§5) The in vitro invasiveness of 4910, 5310 and U87 glioma cells and MDAMB231 and ZR71 breast cancer cells in the presence of specified concentrations of compounds were assessed using a modified Boyden chamber assay. Cells were treated with these compounds for 48 h.
# MDA-MB-231 = test: Matrigel invasion assay (modified Boyden chamber), MDA-MB-231; format: cell-based; settings: cells treated 48 h
# Procedure: as §4, §5
# 4910 = test: Matrigel invasion assay (modified Boyden chamber), 4910; format: cell-based, human; settings: cells treated 48 h
# Procedure: as §4, §5
# 5310 = test: Matrigel invasion assay (modified Boyden chamber), 5310; format: cell-based; settings: cells treated 48 h
# Procedure: as §4, §5
# U87 = test: Matrigel invasion assay (modified Boyden chamber), U87; format: cell-based; settings: cells treated 48 h
# Procedure: as §4, §5
# ZR-71 cells = test: In vitro angiogenic assay (conditioned media on human dermal endothelial cells), ZR-71; format: cell-based
# Procedure: (§6) The in vitro angiogenesis of 4910, 5310 and U87 glioma cells and MDAMB231 and ZR71 breast cancer cells in the presence of specified concentrations of compounds were determined as follows, cells (2x10^4/well) were seeded in 8-well chamber slides and were treated with various concentrations of test compounds. After a 24 h incubation period, the conditioned media was removed and added to a 4x 10^4 human dermal endothelial cell (monolayer in 8-well chamber slides) and the human dermal endothelial cells were allowed to grow for 72 h. Cells were then fixed in 3.7% formaldehyde and stained with H&E and photographed.
# MDA-MB-231 cells = test: In vitro angiogenic assay (conditioned media on human dermal endothelial cells), MDA-MB-231; format: cell-based; settings: control condition and after radiation
# Procedure: as §6
# [2] = system: Glioma xenograft cells 4910; test: In vitro angiogenic assay (conditioned media on human dermal endothelial cells), 4910; format: cell-based; settings: 4910 cells, with and without radiation
# Procedure: as §6
# 5310 cells = test: In vitro angiogenic assay (conditioned media on human dermal endothelial cells), 5310; format: cell-based; settings: control conditions and after radiation
# Procedure: as §6
# U87 glioma cells = test: In vitro angiogenic assay (conditioned media on human dermal endothelial cells), U87; format: cell-based; settings: with and without radiation
# Procedure: as §6
# U87 cells = test: Western blot analysis for AKT, ERK and Pi3k, U87; format: cell-based; settings: decrease was enhanced after radiation
# Procedure: (§7) Western blot analysis of 4910, 5310 and U87 glioma cells and MDAMB231 and ZR71 breast cancer cells in the presence of specified concentrations of compounds were assessed as per standard protocols. Cells were treated with AN019, AN024 or Temozolomide at the specified concentrations. 24h after treatment, cells were collected and cell lysates extracted. Equal quantities of proteins were fractionated by SDS-PAGE. The fractionated proteins were blotted on to nylon membranes and immunoprobed for AKT, ERK and Pi3k. Breast cancer cell protein isolates were additionally immunoprobed for EGFR, ErbB1, ErbB2 and ErbB3.
# 4910 cells = test: Western blot analysis for AKT, ERK and Pi3k, 4910; format: cell-based, human; settings: decrease enhanced after radiation
# Procedure: as §7
# ZR71 = test: Western blot analysis for AKT, ERK and Pi3k, ZR71; format: cell-based
# Procedure: as §7
# [3] = system: 4910, 5310 and U87 glioma cells and MDAMB231 and ZR71 breast cancer cells; test: Western blot analysis for pAKT and pERK (cell line not specified); format: cell-based; settings: with and without radiation
# Procedure: as §7
# [4] = system: K562 luciferase expressing cells; test: Leukemic survival study, K562 luciferase expressing cells implanted intraperitoneally; format: in vivo, nude mice
# [5] = system: 4910 human glioma xenograft cells; test: Glioma radiation study, intracranially implanted 4910 cells; format: in vivo, Nude mice
# Procedure: Nude mice were intracranially implanted with 4910 human glioma xenograft cells (1x10^6 cells). Ten days after implantation mice were treated with AN019, AN024 or temozolomide with or without radiation (5Gy/week). The experiment was terminated at day 40 post implantation.
# K562 = test: ED50 (po) and therapeutic index in leukemic mice (K562)
smiles,measurement,setting,value
Cc1ccc(NC(=O)c2cccc(S(=O)(=O)C(F)(F)F)c2)cc1Nc1nccc(-c2cccnc2)n1 [AN024],blast cell count in blood smears,Baf3T315I,significant decrease in blast cell count and was superior to AN019 treatment at day 42
same,blast cell count in blood smears,Baf3M351T,significant decrease in blast cell count and was superior to AN019 treatment at day 42
same,blast cell count in blood smears,Baf3E255K,significant decrease in blast cell count and was superior to AN019 treatment at day 42
same,De (drug effectiveness),[1]; 5mg/kg,30.00%
same,De (drug effectiveness),[1]; 10mg/kg,85.00%
same,De (drug effectiveness),[1]; 20mg/kg,87.00%
same,De (drug effectiveness),[1]; 40mg/kg,90.00%
same,Tp (temporal penetrance),K5621uc cells,2.4
same,+Radiation % Invasion,"ZR-71; ZR-71, with radiation",45%
same,-Radiation % Invasion,"ZR-71; ZR-71, without radiation",48%
same,+Radiation % Invasion,"MDA-MB-231; MDA-MB-231, with radiation",47%
same,-Radiation % Invasion,"MDA-MB-231; MDA-MB-231, without radiation",43%
same,+Radiation % Invasion,"4910; 4910, with radiation",39%
same,-Radiation % Invasion,"4910; 4910, without radiation",56%
same,+Radiation % Invasion,"5310; 5310, with radiation",32%
same,-Radiation % Invasion,"5310; 5310, without radiation",27%
same,+Radiation % Invasion,"U87; U87, with radiation",29%
same,-Radiation % Invasion,"U87; U87, without radiation",53%
same,inhibition of angiogenesis,ZR-71 cells,complete inhibition of angiogenesis
same,inhibition of angiogenesis,MDA-MB-231 cells,only a slight inhibition was observed in control and radiation treatments
same,inhibition of angiogenesis,[2],significant inhibition of angiogenesis both with and without radiation
same,inhibition of angiogenesis,5310 cells,"inhibition of angiogenesis was seen in control conditions, whereas angiogenesis further inhibited after radiation treatment"
same,inhibition of angiogenesis,U87 glioma cells,significant retardation in angiogenesis with an increase in inhibition after radiation
same,ERK levels,U87 cells,slight decrease in ERK levels
same,AKT levels,4910 cells,decrease in AKT levels
same,PI3k levels,"ZR71; ZR71 (cell line by context), with and without radiation",decrease in PI3k levels after radiation
same,AKT levels,"ZR71; ZR71, unirradiated and after radiation","did not show any significant change under unirradiated conditions, whereas after radiation AN024 treated cells showed a decrease in AKT expression"
same,levels of pERK,[3],reduction on pERK levels but to a lesser extent than AN019
same,curative effect after withdrawal of drug treatment (animals cured at day 58),"[4]; drug treatment stopped at day 42, based on luminescence (Fig. 20)",continued to show curative effect
same,Blast cell count from blood smears after withdrawal of drug treatment,[4]; drug treatment withdrawn on day 42 (Fig. 21),showed effectiveness after withdrawal of drug treatment
same,mortality,"[4]; treatment from day 15 till day 42, then withdrawn, AN024 death determined to be other than leukemia",showed mortality on day 38
same,animals showing no signs of leukemia / complete absence of leukemic symptoms,"[4]; treatment from day 15 till day 42, then withdrawn, AN024 on day 55",8 of the 10 animals
same,animals cured / no observable intracranial tumor,"[5]; with radiation (5Gy/week), terminated at day 40",7 of 10 animals
same,"intracranial tumours (size, appearance)",[5]; without radiation,showed presence of intracranial tumours but the tumours were well defined and not showing diffuse edges
same,animals cured / complete absence of intracranial tumours,"[5]; without radiation, treatment from ten days after implantation, terminated at day 40",3 of 10 animals
same,Therapeutic index-LD50/ED50,K562,144
